Reference: ChEMBL document CHEMBL1142943, “Homology modeling of human Fyn kinase structure: discovery of rosmarinic acid as a new Fyn kinase inhibitor and in silico study of its possible binding modes” (J Med Chem, 2007)

Tests used:
[1] = biological target: T1, Tyrosine-protein kinase Fyn (Homo sapiens, UniProt P06241); assay: Inhibition of human Fyn expressed in Sf9 cells after 20 mins by ELISA in presence of 10 umol/L ATP
[2] = biological target: T1, Tyrosine-protein kinase Fyn; assay: Inhibition of human Fyn expressed in Sf9 cells after 1 min by ELISA in presence of 1 umol/L ATP
[3] = biological target: T1, Tyrosine-protein kinase Fyn; assay: Inhibition of human Fyn expressed in Sf9 cells at 10 umol/L by ELISA
[4] = biological target: T1, Tyrosine-protein kinase Fyn; assay: Inhibition of human Fyn expressed in Sf9 cells after 1 min by ELISA in presence of 10 umol/L ATP
[5] = biological target: T1, Tyrosine-protein kinase Fyn; assay: Inhibition of human Fyn expressed in Sf9 cells after 20 mins by ELISA in presence of 1 umol/L ATP
[6] = biological target: T1, Tyrosine-protein kinase Fyn; assay: Inhibition of human Fyn expressed in Sf9 cells after 1 min by ELISA in presence of 100 umol/L ATP
[7] = biological target: T1, Tyrosine-protein kinase Fyn; assay: Inhibition of human Fyn expressed in Sf9 cells at 30 umol/L by ELISA
[8] = biological target: T1, Tyrosine-protein kinase Fyn; assay: Inhibition of human Fyn expressed in Sf9 cells after 20 mins by ELISA in presence of 100 umol/L ATP

T1 sequence (P06241 whole entry): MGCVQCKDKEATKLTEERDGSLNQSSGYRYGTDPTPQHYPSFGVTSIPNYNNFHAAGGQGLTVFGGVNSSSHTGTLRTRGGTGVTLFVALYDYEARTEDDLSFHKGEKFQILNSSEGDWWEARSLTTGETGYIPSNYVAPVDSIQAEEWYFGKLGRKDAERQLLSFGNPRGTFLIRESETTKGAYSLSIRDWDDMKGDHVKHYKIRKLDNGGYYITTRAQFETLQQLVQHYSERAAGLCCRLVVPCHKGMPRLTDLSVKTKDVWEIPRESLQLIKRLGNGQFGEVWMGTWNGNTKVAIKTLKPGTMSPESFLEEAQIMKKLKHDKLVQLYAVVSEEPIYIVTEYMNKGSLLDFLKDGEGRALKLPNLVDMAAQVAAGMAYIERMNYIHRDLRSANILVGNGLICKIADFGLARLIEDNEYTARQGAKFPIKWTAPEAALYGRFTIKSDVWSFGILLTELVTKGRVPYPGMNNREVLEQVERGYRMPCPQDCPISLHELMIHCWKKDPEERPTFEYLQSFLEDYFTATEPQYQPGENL

IC50 [1]: 3.6 µM
IC50 [2]: 36 µM
Ki [3]: 7.5 µM
IC50 [4]: 74 µM
IC50 [5]: 1.3 µM
IC50 [6]: 63 µM
Ki [7]: 10.2 µM
IC50 [8]: 17 µM
Structure (SMILES): O=C(/C=C/c1ccc(O)c(O)c1)O[C@H](Cc1ccc(O)c(O)c1)C(=O)O [ROSMARINIC ACID]
